Reference: patent US20120128650A1, “EXTENDED ACTING OXYGEN GENERATING COMPOSITION FOR TREATING MICROBIAL INFECTIONS” (DEC INTERNATIONAL NZ LIMITED, priority 2009, published 2012)

Key:
Staphylococcus aureus = assay: Growth of Staphylococcus aureus in mastitic milk, colony counts; type: cell-based; settings: 10 micromoles per ml added at 60 minutes, oxygen-limited
Experimental: Milk was collected at the morning milking, using aseptic technique, from a quarter that had been identified as having a sub-clinical infection with a single organism. The milk was taken to the laboratory and within 2 hours of collection divided amongst sterile incubation containers. The container was either a sealed vessel that was filled so there was no head-space and could be sampled through a rubber septum (limited oxygen) or a flask with a large surface area and head space, incubated in a shaking incubator (oxygenated). Because milk is aerated during collection and handling the samples should have the same oxygen content at the start of incubation. The growth rate was determined by sampling at regular intervals, diluting into recovery diluent, plating and counting the number of colonies.

[1] = pH, oxygen and peroxide analysis after addition of coated sodium percarbonate to milk; type: physicochemical
Experimental: Sodium percarbonate coated with ethyl cellulose was added to 20 mL pasteurized and homogenized milk. The pH value (by pH Meter), the concentration of oxygen (by potentiometric electrode) and peroxide (by chemical test strips) were measured at interval sampling time, as shown in FIG. 4A-C.

Row | amount required to deliver 30 mg peroxide [1] [mg] | SMILES | number of viable organisms (Staphylococcus aureus; after 4 hours, from around 3000 cfu per ml at 60 minutes) [cfu per ml] | number of viable organisms (Staphylococcus aureus; at 10 hours and thereafter)
1 | – | OO [Hydrogen peroxide] | 20 | no detectable organisms
2 | 70 to 100 | O=C([O-])[O-].O=C([O-])[O-].OO.OO.OO.[Na+].[Na+].[Na+].[Na+] [sodium percarbonate] | – | –
